In ChEMBL document CHEMBL3046457, “Chemical characterization of the aphid antifeedant extracts from Dittrichia viscosa and Ferula communis” (2012):

Tests used:
Format in all cases: functional
Myzus persicae [1] = test: Insecticidal activity against Myzus persicae (green peach aphid) in compound treated leaf disk assessed as settling inhibition on leaf disk at 100 ug/cm'2 relative to control
Myzus persicae [2] = test: Insecticidal activity against Myzus persicae (green peach aphid) in compound treated leaf disk assessed as settling inhibition on leaf disk at 50 ug/cm'2 relative to control
Myzus persicae [3] = test: Insecticidal activity against Myzus persicae (green peach aphid) in compound treated leaf disk assessed as settling inhibition on leaf disk at 10 ug/cm'2 relative to control
Myzus persicae [4] = test: Insecticidal activity against Myzus persicae (green peach aphid) in compound treated leaf disk assessed as settled on leaf disk at 100 ug/cm'2 relative to control (reference value: 39 +/- 6 to 98 +/- 1%)
Myzus persicae [5] = test: Insecticidal activity against Myzus persicae (green peach aphid) in compound treated leaf disk assessed as settled on leaf disk at 10 ug/cm'2 relative to control (reference value: 39 +/- 6 to 98 +/- 1%)
Myzus persicae [6] = test: Insecticidal activity against Myzus persicae (green peach aphid) in compound treated leaf disk assessed as settled on leaf disk at 50 ug/cm'2 relative to control (reference value: 39 +/- 6 to 98 +/- 1%)
Myzus persicae [7] = test: Insecticidal activity against Myzus persicae (green peach aphid) in compound treated leaf disk assessed as settled on leaf disk

Structure (SMILES) | inhibition (INH) (Myzus persicae [1]) [%] | inhibition (INH) (Myzus persicae [2]) [%] | inhibition (INH) (Myzus persicae [3]) [%] | inhibition (INH) (Myzus persicae [4]) [%] | inhibition (INH) (Myzus persicae [5]) [%] | inhibition (INH) (Myzus persicae [6]) [%] | ED50 (Myzus persicae [7]) [microg/cm2]
CC(C)=CCC/C(C)=C/CC/C(C)=C/Cc1c(O)c2ccccc2oc1=O | 62 | 71 | 63 | 26 | 28 | 20 | –
C=C1C(=O)O[C@@H]2C[C@H](C)C(CCC(C)=O)=CC[C@H]12 [TOMENTOSIN] | 98 | 48 | 19 | 2 | 61 | 35 | 31.9
C=C1C(=O)O[C@H]2CC(=C)[C@H]3CC[C@@](C)(O)[C@@H]3C[C@H]12 [INUVISCOLIDE] | 56 | 50 | 38 | 31 | 43 | 39 | –
